molecular target: T1, EGF receptor partially purified by A431 cell line (Homo sapiens, UniProt P00533); assay: EGFR tyrosine kinase inhibitory action (A431 cell membrane fraction, 32P-ATP, Angiotensin II substrate); format: biochemical; settings: EGF-stimulated, 10 μM ATP, in ice for 30 min
T1 construct: A431 cell membrane fraction, which was used for the assay as an enzyme source of partially purified EGF receptor; endogenous in cells; host or cells: A431 human epidermoid cancer cells (membrane fraction, 100,000 G pellet)
T1 sequence (P00533 25-1210): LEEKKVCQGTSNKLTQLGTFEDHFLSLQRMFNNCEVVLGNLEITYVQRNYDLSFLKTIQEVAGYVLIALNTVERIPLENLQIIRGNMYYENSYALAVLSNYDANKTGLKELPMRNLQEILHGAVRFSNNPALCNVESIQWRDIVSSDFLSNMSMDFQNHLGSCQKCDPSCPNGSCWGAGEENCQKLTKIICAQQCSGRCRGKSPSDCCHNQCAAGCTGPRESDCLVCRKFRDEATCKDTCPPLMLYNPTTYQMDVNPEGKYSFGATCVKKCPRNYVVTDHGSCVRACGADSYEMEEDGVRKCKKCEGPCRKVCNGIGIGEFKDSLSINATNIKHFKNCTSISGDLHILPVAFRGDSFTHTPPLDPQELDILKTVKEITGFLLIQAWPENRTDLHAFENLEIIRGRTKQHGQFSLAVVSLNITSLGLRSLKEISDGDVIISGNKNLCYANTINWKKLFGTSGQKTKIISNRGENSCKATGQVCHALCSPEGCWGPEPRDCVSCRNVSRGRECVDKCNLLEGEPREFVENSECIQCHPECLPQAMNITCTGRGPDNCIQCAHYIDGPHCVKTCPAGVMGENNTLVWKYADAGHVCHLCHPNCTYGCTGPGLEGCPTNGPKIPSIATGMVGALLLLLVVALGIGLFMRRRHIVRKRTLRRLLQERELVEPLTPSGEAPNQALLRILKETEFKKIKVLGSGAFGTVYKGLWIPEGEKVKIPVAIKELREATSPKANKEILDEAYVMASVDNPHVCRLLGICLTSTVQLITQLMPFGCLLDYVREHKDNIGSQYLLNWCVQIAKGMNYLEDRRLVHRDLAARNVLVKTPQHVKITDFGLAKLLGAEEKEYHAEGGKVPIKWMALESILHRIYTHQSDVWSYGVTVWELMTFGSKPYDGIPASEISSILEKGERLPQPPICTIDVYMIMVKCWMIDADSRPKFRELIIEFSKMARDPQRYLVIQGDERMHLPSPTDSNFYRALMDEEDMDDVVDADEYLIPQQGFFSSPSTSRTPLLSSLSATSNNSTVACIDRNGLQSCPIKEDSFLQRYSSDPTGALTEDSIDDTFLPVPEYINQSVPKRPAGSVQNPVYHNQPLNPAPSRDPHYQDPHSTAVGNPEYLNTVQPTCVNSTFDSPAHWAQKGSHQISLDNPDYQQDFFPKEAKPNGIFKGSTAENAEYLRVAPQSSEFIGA
Description: Specific method was as follows.
A431 cells were cultured in Dulbecco's Modified Eagle Medium (DMEM) containing 10% of fetal calf serum (FBS) at 37° C. under 5% carbon dioxide gas, and homogenized in a solution containing 10 mM N-2-hydroxyethylpiperazino-N′-2-ethanesulfonic acid (Hepes) buffer (pH 7.4), 0.25 M sucrose and 0.1 mM EDTA, and separated by centrifugation at 3000 G for 5 min. The supernatant was separated by centrifugation at 100,000 G for 30 min to separate A431 cell membrane fraction, which was used for the assay as an enzyme source of partially purified EGF receptor.
The reaction was carried out in ice for 30 min and 6 μL of 10 mg/mL bovine serum albumin and 25 μL of 20% trichloroacetic acid were added to stop the reaction. The reaction mixture was left in ice as it was for 30 min.
The mixture was centrifuged at 5000 G for 2 min and the supernatant was sampled by 40 μL and adsorbed on P81 phosphocellulose paper. […] This rinsing was repeated 4 times. The paper was taken out, the ^32P count was measured on a liquid scintillation counter and this value was taken as A.
Simultaneously, a reaction without the test substance and a reaction without the test substance and EGF were also measured and the counts thereof were taken as B and C, respectively.
The tyrosine kinase inhibitory rate can be determined from the following formula based on these values. Percent Inhibition (%)=100−{(A−C)/(B−C)}×100

| SMILES | IC50 [nM] |
| --- | --- |
| C=CC(=O)Nc1cc2c(Nc3ccc(F)c(Cl)c3)ncnc2cc1C#CC(C)(C)N1CCC(N(C)C)CC1 [1aa] | 1.7 |
| C=CC(=O)Nc1cc2c(Nc3ccc(F)c(Cl)c3)ncnc2cc1C#CC(C)(C)N(C)C1CCN(C)CC1 [1ab] | 2.1 |
| C=CC(=O)Nc1cc2c(Nc3ccc(F)c(Cl)c3)ncnc2cc1C#CCCN1CCN(C)CC1 [1ac] | < 1 |
| C=CC(=O)Nc1cc2c(Nc3ccc(F)c(Cl)c3)ncnc2cc1C#CC(C)(C)N1CCNCC1 [1ap] | 2.4 |
| C=CC(=O)Nc1cc2c(Nc3ccc(F)c(Cl)c3)ncnc2cc1C#CC(C)(C)N1CCOCC1 [1b] | 1.3 |
| COc1cc2ncnc(Nc3ccc(F)c(Cl)c3)c2cc1C#CC(C)(C)N1CCN(C)CC1 [1ba] | 1.1 |
| CCOc1cc2ncnc(Nc3ccc(F)c(Cl)c3)c2cc1C#CC(C)(C)N1CCN(C(C)=O)CC1 [1baa] | 2.8 |
| CCOc1cc2ncnc(Nc3ccc(F)c(Cl)c3)c2cc1C#CC(C)(C)N(CC)CCC(=O)OC [1bab] | 5.6 |
| CCOc1cc2ncnc(Nc3ccc(F)c(Cl)c3)c2cc1C#CC(C)(C)N1CCN(S(C)(=O)=O)CC1 [1bad] | 4 |
| CCOc1cc2ncnc(Nc3ccc(F)c(Cl)c3)c2cc1C#CC(C)(C)N1CCN(CCC#N)CC1 [1bae] | 2.5 |
| CCOc1cc2ncnc(Nc3ccc(F)c(Cl)c3)c2cc1C#CC(C)(C)N1CCC(OC)CC1 [1baf] | 3.3 |
| CCOc1cc2ncnc(Nc3ccc(F)c(Cl)c3)c2cc1C#CC(CC)(CC)N1CCN(C)CC1 [1bag] | 5.1 |
| CCOc1cc2ncnc(Nc3ccc(F)c(Cl)c3)c2cc1C#CC(C)(C)N1CCN(CCOC)CC1 [1bah] | 2.6 |
| C#Cc1cccc(Nc2ncnc3cc(OCC)c(C#CC(C)(C)N4CCN(CC#N)CC4)cc23)c1 [1bai] | 1.8 |
| C#Cc1cccc(Nc2ncnc3cc(OCC)c(C#CC(C)(C)N4CCOCC4)cc23)c1 [1baj] | 3.3 |
| C#Cc1cccc(Nc2ncnc3cc(OCC)c(C#CC(C)(C)N4CCN(C)CC4)cc23)c1 [1bam] | 3.3 |
| C#Cc1cccc(Nc2ncnc3cc(OCC)c(C#CC(C)(C)N(C)CCN(C)C)cc23)c1 [1ban] | 2.6 |
| COc1cc2ncnc(Nc3ccc(F)c(Cl)c3)c2cc1C#CC(C)(C)N1CCN(CC#N)CC1 [1bb] | 1.3 |
| COc1cc2ncnc(Nc3ccc(F)c(Cl)c3)c2cc1C#CC(C)(C)N1CCNCC1 [1bc] | 1.6 |
| CCCN1CCN(C(C)(C)C#Cc2cc3c(Nc4ccc(F)c(Cl)c4)ncnc3cc2OC)CC1 [1bd] | 3 |
| COc1cc2ncnc(Nc3ccc(F)c(Cl)c3)c2cc1C#CC(C)(C)N1CCN(CC(C)C)CC1 [1be] | 8 |
| COc1cc2ncnc(Nc3ccc(F)c(Cl)c3)c2cc1/C=C/C(C)(C)N1CCN(C)CC1 [1bf] | 0.82 |
| COc1cccc(Nc2ncnc3cc(OC)c(C#CC(C)(C)N4CCN(C)CC4)cc23)c1 [1bh] | 4.4 |
| COc1cc2c(Nc3ccc(F)c(Cl)c3)ncnc2cc1C#CC(C)(C)N1CCN(C)CC1 [1bi] | 1 |
| COc1cc2c(Nc3ccc(F)c(Cl)c3)ncnc2cc1C#CC(C)(C)N1CCN(CC#N)CC1 [1bj] | 2.9 |

| SMILES | IC50 [nM] |
| --- | --- |
| CCOc1cc2ncnc(Nc3ccc(F)c(Cl)c3)c2cc1C#CC(C)(C)N1CCOCC1 [1bk] | 2.1 |
| CCOc1cc2ncnc(Nc3ccc(F)c(Cl)c3)c2cc1C#CC(C)(C)N(C)CCOC [1bl] | 2.2 |
| CCOc1cc2ncnc(Nc3ccc(F)c(Cl)c3)c2cc1C#CC(C)(C)N(C)CCC#N [1bm] | 2.8 |
| CCOc1cc2ncnc(Nc3ccc(F)c(Cl)c3)c2cc1C#CC(C)(C)N1CCCCC1 [1bn] | 3.5 |
| CCOc1cc2ncnc(Nc3ccc(F)c(Cl)c3)c2cc1C#CC(C)(C)N(C)CCN(C)C [1bo] | 2.2 |
| CCOc1cc2ncnc(Nc3ccc(F)c(Cl)c3)c2cc1C#CC(C)(C)N1CCN(C)CC1 [1bp] | 2.1 |
| CCOc1cc2ncnc(Nc3ccc(F)c(Cl)c3)c2cc1C#CC(C)(C)N(CC)CC [1br] | 5.7 |
| CCOc1cc2ncnc(Nc3ccc(F)c(Cl)c3)c2cc1C#CC(C)(C)N1CCN(CC#N)CC1 [1bs] | 1.1 |
| CCOc1cc2ncnc(Nc3ccc(F)c(Cl)c3)c2cc1C#CC1(N2CCN(C)CC2)CCCCC1 [1bt] | 5 |
| CCOCCN(CCOCC)C(C)(C)C#Cc1cc2c(Nc3ccc(F)c(Cl)c3)ncnc2cc1OCC [1bu] | 3.2 |
| CCOc1cc2ncnc(Nc3ccc(F)c(Cl)c3)c2cc1C#CC(C)(C)N1CCC(O)CC1 [1bv] | 1.5 |
| CCOc1cc2ncnc(Nc3ccc(F)c(Cl)c3)c2cc1C#CC(C)(C)N1CCCN(C)CC1 [1bw] | 2.8 |
| CCOc1cc2ncnc(Nc3ccc(F)c(Cl)c3)c2cc1C#CC(C)(C)NCCN1CCOCC1 [1bx] | 3.4 |
| CCOc1cc2ncnc(Nc3ccc(F)c(Cl)c3)c2cc1C#CC(C)(C)N1CCN(CC)CC1 [1bz] | 2.2 |
| C=CC(=O)Nc1cc2c(Nc3ccc(F)c(Cl)c3)ncnc2cc1C#CC(C)(C)N1CCN(CC#N)CC1 [1c] | 3.9 |
| CC(C)(C#Cc1cc2ncnc(Nc3ccc(F)c(Cl)c3)c2cc1NS(C)(=O)=O)N1CCN(CC#N)CC1 [1ca] | 7.7 |
| CN1CCN(C(C)(C)C#Cc2cc3ncnc(Nc4ccc(F)c(Cl)c4)c3cc2NS(C)(=O)=O)CC1 [1cg] | 2.1 |
| CCN1CCN(C(C)(C)C#Cc2cc3ncnc(Nc4ccc(F)c(Cl)c4)c3cc2NS(C)(=O)=O)CC1 [1ch] | 2.6 |
| CN1CCC(N(C)C(C)(C)C#Cc2cc3ncnc(Nc4ccc(F)c(Cl)c4)c3cc2NS(C)(=O)=O)CC1 [1cj] | 2.7 |
| CN1CCN(C2(C#Cc3cc4ncnc(Nc5ccc(F)c(Cl)c5)c4cc3NS(C)(=O)=O)CCCCC2)CC1 [1cm] | 5.2 |
| CCC(C#Cc1cc2ncnc(Nc3ccc(F)c(Cl)c3)c2cc1NS(C)(=O)=O)(CC)N1CCN(C)CC1 [1cr] | 3.4 |
| CCN(CCC(=O)OC)C(C)(C)C#Cc1cc2ncnc(Nc3ccc(F)c(Cl)c3)c2cc1NS(C)(=O)=O [1cu] | 5.5 |
| COCCN1CCN(C(C)(C)C#Cc2cc3ncnc(Nc4ccc(F)c(Cl)c4)c3cc2NS(C)(=O)=O)CC1 [1cv] | 1.8 |
| CC(C)(C#Cc1cc2ncnc(Nc3ccc(F)c(Cl)c3)c2cc1NS(C)(=O)=O)N1CCN(CCC#N)CC1 [1cw] | 2.5 |
| CC(C)(C#Cc1cc2ncnc(Nc3ccc(F)c(Cl)c3)c2cc1NS(C)(=O)=O)N1CCCC1 [1cx] | 2.8 |

molecular target: T2, mutated c-erbB2 (HER2) constitutively activated, in transformed NIH3T3 cells (A4 cell) (Homo sapiens, UniProt P04626, V659E); assay: HER2 tyrosine kinase inhibitory action (phosphotyrosine Western blotting in A4 cells); format: cell-based; settings: 0.1 μM, 2 hrs, signal without compound = 100%, read-out: % of control at 0.1 μM (phosphorylation signal)
T2 construct: expressed in transfected cells; host or cells: NIH3T3 mouse fibroblast cell line (A4 cell)
T2 sequence (P04626 23-1255 V659E): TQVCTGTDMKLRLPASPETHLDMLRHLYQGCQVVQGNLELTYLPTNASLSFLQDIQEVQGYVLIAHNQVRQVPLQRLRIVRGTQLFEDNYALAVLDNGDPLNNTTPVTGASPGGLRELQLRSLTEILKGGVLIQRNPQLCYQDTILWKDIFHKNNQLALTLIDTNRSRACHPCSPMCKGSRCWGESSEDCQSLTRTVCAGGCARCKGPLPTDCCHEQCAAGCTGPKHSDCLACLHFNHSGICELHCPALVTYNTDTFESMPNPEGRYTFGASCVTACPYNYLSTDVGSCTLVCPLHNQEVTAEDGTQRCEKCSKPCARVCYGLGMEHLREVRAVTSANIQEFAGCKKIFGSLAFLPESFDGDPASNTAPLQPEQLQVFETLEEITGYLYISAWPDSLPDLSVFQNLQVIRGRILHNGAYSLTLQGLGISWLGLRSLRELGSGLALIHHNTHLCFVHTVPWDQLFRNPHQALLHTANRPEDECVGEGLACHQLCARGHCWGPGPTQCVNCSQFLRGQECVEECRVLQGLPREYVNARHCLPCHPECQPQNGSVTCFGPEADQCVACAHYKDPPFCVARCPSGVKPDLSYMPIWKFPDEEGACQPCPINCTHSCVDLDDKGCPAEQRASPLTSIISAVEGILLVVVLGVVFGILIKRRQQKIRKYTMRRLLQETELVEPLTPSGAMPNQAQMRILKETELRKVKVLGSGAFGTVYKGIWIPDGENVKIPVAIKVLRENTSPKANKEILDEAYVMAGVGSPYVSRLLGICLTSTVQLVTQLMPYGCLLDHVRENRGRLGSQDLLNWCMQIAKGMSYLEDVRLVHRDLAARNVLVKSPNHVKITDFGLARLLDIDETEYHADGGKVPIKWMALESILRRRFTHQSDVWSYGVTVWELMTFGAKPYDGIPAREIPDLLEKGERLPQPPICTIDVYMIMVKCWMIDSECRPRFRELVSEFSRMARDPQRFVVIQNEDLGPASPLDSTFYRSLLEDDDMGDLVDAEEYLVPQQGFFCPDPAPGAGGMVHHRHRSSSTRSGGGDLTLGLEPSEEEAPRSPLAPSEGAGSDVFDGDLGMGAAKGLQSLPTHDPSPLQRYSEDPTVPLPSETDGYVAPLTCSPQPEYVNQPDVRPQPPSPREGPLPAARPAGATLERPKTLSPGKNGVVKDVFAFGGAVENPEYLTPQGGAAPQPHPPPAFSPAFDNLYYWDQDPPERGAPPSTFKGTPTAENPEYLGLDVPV
Description: (2) HER2 Tyrosine Kinase Inhibitory Action (Method)
As the cells, NIH3T3 mouse fibroblast cell line (provided by Institute of Development, Aging and Cancer, Tohoku University Cell Resource Center for Biomedical Research) transformed with mutated c-erbB2 constitutively activated by substituting valine at position 659 for glutamic acid was used. In the following, the cell is referred to as A4 cell. This cell line was cultured in DMEM/F12 mixed medium (hereinafter a complete medium) supplemented with 10% FBS in a plastic dish at 37° C., 5% CO2, 95% air.
The A4 cells suspended in a complete medium were seeded in a 12-well plate at 3×10^5/well, and confluent cells were cultured with the compound at 37° C. for 2 hrs. The cells were washed once with PBS, re-suspended in a lysis buffer (60 mM Tris (pH 6.8), 2% SDS, 10% glycerol, 5% beta-mercaptoethanol, 0.001% bromophenol blue), treated by ultrasonication and applied to Western blotting as a whole cell lysate.
The whole cell lysate (protein amount 25 μg) was applied to 7.5% SDS-polyacrylamide electrophoresis and transferred to PVDF membrane. The membrane was blocked and incubated with antiphosphotyrosine mouse monoclonal antibody in Tris buffer containing 0.1% Tween 20 and then treated with HRP-labeled antimouse second antibody. The membrane was developed with a chemiluminescent reagent. The chemiluminescence was taken with a lumino CCD camera and recorded electronically.

| SMILES | remaining activity at 0.1 µM [%] |
| --- | --- |
| C=CC(=O)Nc1cc2c(Nc3ccc(F)c(Cl)c3)ncnc2cc1C#CCCN1CCN(C)CC1 [1ac] | 9 |
| C=CC(=O)Nc1cc2c(Nc3ccc(F)c(Cl)c3)ncnc2cc1C#CC(C)(C)N1CCNCC1 [1ap] | 74 |

same assay, conditions: 1 μM, 2 hrs, signal without compound = 100%, read-out: % of control at 1 μM (phosphorylation signal)

| SMILES | remaining activity at 1 µM [%] |
| --- | --- |
| C=CC(=O)Nc1cc2c(Nc3ccc(F)c(Cl)c3)ncnc2cc1C#CCCN1CCN(C)CC1 [1ac] | 3 |
| C=CC(=O)Nc1cc2c(Nc3ccc(F)c(Cl)c3)ncnc2cc1C#CC(C)(C)N1CCNCC1 [1ap] | 24 |

test system: A431 tumor; assay: In vivo antitumor effect on A431 tumor in nude mice; set-up: species or system Balb/c female nude mice; settings: 1 mg/kg orally once a day for 14 days
Description: (4) In vivo Antitumor Effect
Human epidermoid cancer cell A431 (5×10^6/100 μl) suspended in PBS was subcutaneously implanted on the back of Balb/c female nude mice (Balb/cAJcl-nu mouse, Clea Japan, Inc., 5-week-old when purchased) and when the average volume of the implanted tumor reached approximately about 100 mm^3 in about 7 days, the mice were allocated (4 per group) to make the average tumor volume the same for each group. The tumor volume was obtained by measuring the long diameter and the short diameter with a caliper and according to: [(short diameter)^2×long diameter/2]=tumor volume [mm^3]. A pharmaceutical agent was forcibly administered orally once a day for 14 consecutive days from the day of the allocation, and the drug was not given to the mice of the control group. The relative tumor growth rate, with the tumor volume of the day of start of the administration as 1, was calculated for the control group and the treatment group. Antitumor effect (%) of control=(relative tumor growth rate of treatment group on the last day −1)/(relative tumor growth rate of control group on the last day −1)×100

| SMILES | % of control (antitumor effect) [%] |
| --- | --- |
| C=CC(=O)Nc1cc2c(Nc3ccc(F)c(Cl)c3)ncnc2cc1C#CC(C)(C)N1CCN(C)CC1 [compound 1a.2TsOH, 1a.ditosylate] | 41.0 |

same assay, conditions: 1 mg/kg orally once a day for 14 days; volume at start = 1

| SMILES | relative tumor growth rate |
| --- | --- |
| C=CC(=O)Nc1cc2c(Nc3ccc(F)c(Cl)c3)ncnc2cc1C#CC(C)(C)N1CCN(C)CC1 [compound 1a.2TsOH, 1a.ditosylate] | 2.95 |

same assay, conditions: A431 tumor, oral, 14 days

| SMILES | antitumor effect (in words) |
| --- | --- |
| C=CC(=O)Nc1cc2c(Nc3ccc(F)c(Cl)c3)ncnc2cc1C#CC(C)(C)N1CCN(C)CC1 [compound 1a.2TsOH, 1a.ditosylate] | dose-dependent antitumor effect |

From patent publication US7294629B2, “Quinazoline derivatives” (Mitsubishi Pharma Corporation, priority 2001, dated 2007)
